Active and inactive are the calls of the source.
How the values were obtained:
Major prion protein = Major prion protein (Homo sapiens, UniProt P04156); format: functional, cell-based
[1] = molecular target: T1, 1-phosphatidylinositol 4,5-bisphosphate phosphodiesterase gamma-1 (Homo sapiens, UniProt P19174); assay: Counterscreen for inhibitors of phospholipase C isozymes (PLC-B3): Fluorescence-based biochemical high throughput dose response assay to identify inhibitors of phospholipase C isozymes (PLC-gamma1).
T1 sequence (P19174 whole entry): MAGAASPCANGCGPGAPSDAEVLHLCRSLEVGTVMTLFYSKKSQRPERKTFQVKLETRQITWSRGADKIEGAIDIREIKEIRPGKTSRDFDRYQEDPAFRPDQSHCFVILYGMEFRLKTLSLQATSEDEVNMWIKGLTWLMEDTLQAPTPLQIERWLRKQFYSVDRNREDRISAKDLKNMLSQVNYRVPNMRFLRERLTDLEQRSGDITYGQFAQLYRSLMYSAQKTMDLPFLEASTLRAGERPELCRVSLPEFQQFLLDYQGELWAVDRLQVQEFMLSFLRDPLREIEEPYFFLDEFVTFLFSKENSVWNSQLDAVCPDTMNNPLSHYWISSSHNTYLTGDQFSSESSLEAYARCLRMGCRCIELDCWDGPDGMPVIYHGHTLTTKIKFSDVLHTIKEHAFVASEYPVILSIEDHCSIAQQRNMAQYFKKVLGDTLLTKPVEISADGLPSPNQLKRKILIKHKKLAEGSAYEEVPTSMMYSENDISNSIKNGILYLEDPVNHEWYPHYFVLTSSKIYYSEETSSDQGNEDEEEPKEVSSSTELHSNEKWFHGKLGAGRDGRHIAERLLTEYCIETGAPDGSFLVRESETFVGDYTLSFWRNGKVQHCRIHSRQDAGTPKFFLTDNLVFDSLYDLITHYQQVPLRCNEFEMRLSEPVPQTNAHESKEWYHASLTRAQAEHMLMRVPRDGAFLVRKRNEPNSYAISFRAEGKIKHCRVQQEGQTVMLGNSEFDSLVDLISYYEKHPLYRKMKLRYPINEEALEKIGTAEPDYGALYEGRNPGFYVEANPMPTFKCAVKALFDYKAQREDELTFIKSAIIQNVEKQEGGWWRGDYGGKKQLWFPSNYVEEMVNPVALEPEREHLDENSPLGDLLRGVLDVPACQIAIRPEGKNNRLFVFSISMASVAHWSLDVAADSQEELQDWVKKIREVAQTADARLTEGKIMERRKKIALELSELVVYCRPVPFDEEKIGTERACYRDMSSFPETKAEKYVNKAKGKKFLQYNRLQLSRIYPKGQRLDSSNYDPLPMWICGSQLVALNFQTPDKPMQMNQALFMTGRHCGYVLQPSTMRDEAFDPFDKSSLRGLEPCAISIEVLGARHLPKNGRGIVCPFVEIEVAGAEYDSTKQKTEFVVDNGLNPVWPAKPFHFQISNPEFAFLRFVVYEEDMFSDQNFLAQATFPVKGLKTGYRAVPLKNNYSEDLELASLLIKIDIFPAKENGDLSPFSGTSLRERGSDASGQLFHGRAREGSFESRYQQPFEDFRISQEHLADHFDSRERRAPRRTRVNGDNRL

[2] = molecular target: T2, 1-phosphatidylinositol 4,5-bisphosphate phosphodiesterase beta-3 (Homo sapiens, UniProt Q01970); assay: Fluorescence-based biochemical high throughput dose response assay to identify inhibitors of phospholipase C isozymes (PLC-B3).
T2 sequence (Q01970 whole entry): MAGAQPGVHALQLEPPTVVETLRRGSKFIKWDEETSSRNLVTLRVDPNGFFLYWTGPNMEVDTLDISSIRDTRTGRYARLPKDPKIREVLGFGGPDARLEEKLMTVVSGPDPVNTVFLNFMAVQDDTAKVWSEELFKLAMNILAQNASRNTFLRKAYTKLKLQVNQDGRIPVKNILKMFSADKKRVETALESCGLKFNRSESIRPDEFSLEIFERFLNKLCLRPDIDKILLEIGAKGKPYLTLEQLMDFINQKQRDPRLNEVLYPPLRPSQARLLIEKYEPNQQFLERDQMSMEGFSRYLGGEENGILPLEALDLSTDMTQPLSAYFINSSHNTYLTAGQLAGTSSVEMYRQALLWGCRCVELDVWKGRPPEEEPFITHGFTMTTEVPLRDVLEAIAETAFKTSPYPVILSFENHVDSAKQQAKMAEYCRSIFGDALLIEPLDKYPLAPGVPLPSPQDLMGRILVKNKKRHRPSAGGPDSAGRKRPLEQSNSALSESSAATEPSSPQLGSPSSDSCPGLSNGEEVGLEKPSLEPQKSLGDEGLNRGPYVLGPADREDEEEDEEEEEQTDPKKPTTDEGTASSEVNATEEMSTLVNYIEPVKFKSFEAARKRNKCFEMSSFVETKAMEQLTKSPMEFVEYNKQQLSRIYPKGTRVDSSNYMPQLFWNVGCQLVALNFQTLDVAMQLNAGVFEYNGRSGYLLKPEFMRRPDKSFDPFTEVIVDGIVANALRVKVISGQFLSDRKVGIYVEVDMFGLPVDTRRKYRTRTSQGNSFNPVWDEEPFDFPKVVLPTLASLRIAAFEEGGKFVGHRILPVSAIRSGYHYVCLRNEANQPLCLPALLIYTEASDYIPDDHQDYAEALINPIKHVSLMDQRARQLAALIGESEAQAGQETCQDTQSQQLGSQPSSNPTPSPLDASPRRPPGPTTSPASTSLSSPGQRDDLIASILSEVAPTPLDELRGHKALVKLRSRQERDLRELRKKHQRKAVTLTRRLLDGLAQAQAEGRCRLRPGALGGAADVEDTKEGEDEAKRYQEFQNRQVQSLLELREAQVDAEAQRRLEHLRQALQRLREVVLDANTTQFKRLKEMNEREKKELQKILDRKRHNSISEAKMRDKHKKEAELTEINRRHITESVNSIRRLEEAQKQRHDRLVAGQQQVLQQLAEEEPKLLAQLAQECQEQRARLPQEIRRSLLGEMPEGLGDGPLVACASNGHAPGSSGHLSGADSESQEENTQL

BJ [3] = assay: cytotoxicity toward BJ-TERT fibroblasts, dose response, cell-based, RAS-independent, luminescence (AID 1933); format: functional; conditions: Homo sapiens
BJ [4] = assay: cells; format: functional, cell-based; conditions: Homo sapiens
[5] = inhibitors of intracellular T. cruzi replication, confirmation, NIH3T3 host cells, beta-gal luminescence (AID 2044); format: functional, cell-based;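 note: intracellular parasites grown in NIH/3T3 mouse fibroblasts as host cells; luminescent beta-galactosidase reporter signal from transgenic T. cruzi replicating inside host cells; inhibitors lower the luminescence signal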
[6] = cytotoxicity toward NIH3T3 fibroblasts, dose response, counter-screen, cell-based, ATP luminescence, mouse fibroblasts (AID 2010); format: functional;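 note: cells exposed to compound for about 90 hours before reading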
BJ [7] = assay: cytotoxicity toward BJ-TERT-LT-ST fibroblasts, dose response, cell-based, RAS-independent, luminescence (AID 1935); format: functional; conditions: Homo sapiens;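 note: BJ fibroblasts immortalized with TERT plus LT and ST oncogenes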
[8] = cytotoxicity toward DRD oncogenic fibroblasts, dose response, cell-based, non-viral oncogenic, luminescence (AID 1934); format: functional; conditions: Homo sapiens
[9] = molecular target: T3, Replicative DNA helicase DnaB (Mycobacterium tuberculosis, UniProt P9WMR3); assay: DnaB intein splicing inhibitors, dose response, biochemical, cell-free fluorescence (AID 449749); format: functional
T3 sequence (P9WMR3 whole entry): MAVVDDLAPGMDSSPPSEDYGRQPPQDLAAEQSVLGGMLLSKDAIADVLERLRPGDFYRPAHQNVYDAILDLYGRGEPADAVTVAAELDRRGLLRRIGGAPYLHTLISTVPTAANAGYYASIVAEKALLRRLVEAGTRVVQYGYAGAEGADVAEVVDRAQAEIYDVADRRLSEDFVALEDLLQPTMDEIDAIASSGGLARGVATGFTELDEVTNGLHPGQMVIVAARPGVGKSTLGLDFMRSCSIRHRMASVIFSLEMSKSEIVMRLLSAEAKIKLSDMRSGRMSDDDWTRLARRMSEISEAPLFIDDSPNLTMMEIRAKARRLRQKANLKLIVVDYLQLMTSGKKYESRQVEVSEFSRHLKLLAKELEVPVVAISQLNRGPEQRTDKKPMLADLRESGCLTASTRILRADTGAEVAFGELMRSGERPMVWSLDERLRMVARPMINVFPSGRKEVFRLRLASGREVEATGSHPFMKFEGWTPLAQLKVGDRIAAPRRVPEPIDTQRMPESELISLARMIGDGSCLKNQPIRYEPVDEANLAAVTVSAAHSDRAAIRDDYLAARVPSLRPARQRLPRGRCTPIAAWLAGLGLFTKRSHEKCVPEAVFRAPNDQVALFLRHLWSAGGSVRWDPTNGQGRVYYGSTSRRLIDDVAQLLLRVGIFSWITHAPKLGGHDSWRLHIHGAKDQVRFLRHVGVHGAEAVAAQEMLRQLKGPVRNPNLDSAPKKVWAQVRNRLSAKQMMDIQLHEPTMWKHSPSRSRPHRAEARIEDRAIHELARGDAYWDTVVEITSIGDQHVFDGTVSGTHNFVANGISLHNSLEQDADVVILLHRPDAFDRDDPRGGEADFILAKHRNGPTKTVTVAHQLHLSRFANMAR

Protein RecA = molecular target: T4, Protein RecA (Mycobacterium tuberculosis, UniProt P9WHJ3); assay: Fluorescence Cell-Free Homogeneous Dose Retest to Identify Inhibitors of RecA-Intein Splicing Activity. [Related pubchem assays (depositor defined):AID2097, AID2223, AID489010, AID492950]; format: functional
T4 sequence (P9WHJ3 whole entry): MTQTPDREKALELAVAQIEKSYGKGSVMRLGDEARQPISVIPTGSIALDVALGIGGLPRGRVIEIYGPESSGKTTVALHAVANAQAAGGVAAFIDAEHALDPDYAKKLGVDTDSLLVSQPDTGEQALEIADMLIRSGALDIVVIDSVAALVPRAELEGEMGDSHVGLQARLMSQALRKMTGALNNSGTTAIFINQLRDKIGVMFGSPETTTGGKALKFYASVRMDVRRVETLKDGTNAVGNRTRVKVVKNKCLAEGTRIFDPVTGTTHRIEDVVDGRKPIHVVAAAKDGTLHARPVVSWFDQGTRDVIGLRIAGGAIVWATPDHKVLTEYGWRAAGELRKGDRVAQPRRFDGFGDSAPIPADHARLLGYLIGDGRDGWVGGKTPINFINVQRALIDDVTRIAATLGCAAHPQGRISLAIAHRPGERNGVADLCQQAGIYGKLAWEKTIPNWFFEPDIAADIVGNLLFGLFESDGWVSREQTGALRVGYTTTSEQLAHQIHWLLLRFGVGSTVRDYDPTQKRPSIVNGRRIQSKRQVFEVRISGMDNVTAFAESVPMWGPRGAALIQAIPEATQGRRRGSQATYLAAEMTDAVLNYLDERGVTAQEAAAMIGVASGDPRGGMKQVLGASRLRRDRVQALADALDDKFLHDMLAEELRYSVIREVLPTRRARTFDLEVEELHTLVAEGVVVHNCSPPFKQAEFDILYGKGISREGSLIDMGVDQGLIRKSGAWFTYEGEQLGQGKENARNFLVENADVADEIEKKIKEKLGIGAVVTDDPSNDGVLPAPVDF

Paired box protein Pax-8 = Paired box protein Pax-8 (Homo sapiens, UniProt Q06710); assay: inhibitors of PAX8-driven TPO luciferase reporter, dose response, RMG-I cells, cherry-pick (AID 687027); format: functional, cell-based;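 note: luciferase reporter driven by Pax8 target thyroperoxidase promoter measured by SteadyGlo luminescence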
Paired box protein Pax-8, sequence (Q06710 whole entry): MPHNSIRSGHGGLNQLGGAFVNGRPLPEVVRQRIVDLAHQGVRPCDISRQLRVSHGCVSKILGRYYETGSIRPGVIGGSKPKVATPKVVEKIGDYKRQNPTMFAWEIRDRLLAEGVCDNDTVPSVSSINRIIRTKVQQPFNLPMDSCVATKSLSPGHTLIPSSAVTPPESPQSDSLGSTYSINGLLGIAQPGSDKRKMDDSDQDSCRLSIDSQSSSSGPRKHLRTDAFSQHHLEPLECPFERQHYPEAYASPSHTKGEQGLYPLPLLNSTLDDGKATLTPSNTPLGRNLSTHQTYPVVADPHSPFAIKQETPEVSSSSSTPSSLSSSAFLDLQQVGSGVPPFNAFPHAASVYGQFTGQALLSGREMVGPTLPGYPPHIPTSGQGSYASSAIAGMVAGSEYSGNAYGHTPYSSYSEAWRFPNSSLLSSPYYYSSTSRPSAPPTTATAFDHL

[10] = non-specific cell cytotoxicity, dose response, cytotoxicity control for PAX8 inhibitor project, plate reader, dry powder samples (AID 743021); format: functional, cell-based
[11] = NIH:OVCAR-3 ovarian cancer cell cytotoxicity, dose response, PAX8 inhibitor project, plate reader, dry powder samples (AID 743044); format: functional, cell-based
[12] = cytotoxicity in OVCAR8 ovarian cancer cells, dose response, PAX8 project, cell-based, plate reader, dry powder samples (AID 743197); format: functional; conditions: OVCAR-8
[13] = A2780 ovarian cancer cell cytotoxicity, dose response, cytotoxicity control, plate reader, dry powder samples (AID 743046); format: functional, cell-based
[14] = IGROV1 ovarian cancer cell cytotoxicity, dose response, PAX8 inhibitor project, plate reader, dry powder samples (AID 743043); format: functional, cell-based; conditions: IGROV-1
Caspase-6 = molecular target: T5, Caspase-6 (Homo sapiens, UniProt P55212); assay: human caspase-6 inhibitors, dose response, biochemical, VEID-R110 fluorescence, cherry-pick (AID 720632)
T5 sequence (P55212 whole entry): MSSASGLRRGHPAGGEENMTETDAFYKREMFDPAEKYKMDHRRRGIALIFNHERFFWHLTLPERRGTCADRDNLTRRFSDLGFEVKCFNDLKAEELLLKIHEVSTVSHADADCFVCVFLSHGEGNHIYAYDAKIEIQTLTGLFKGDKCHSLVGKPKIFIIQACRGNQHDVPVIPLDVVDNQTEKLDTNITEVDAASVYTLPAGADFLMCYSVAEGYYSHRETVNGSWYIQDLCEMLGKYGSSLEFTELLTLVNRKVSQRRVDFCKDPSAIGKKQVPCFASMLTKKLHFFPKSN

COc1ccccc1Cn1c(=S)[nH]c2ccc(F)cc2c1=O
IC50 (Major prion protein): 0.412 µM (active) | IC50 (cells): > 138 µM (inactive)

CC(C)(C)C(=O)NNC(=O)COc1ccc2ccccc2c1Br
IC50 (Major prion protein): 4.91 µM (active) | IC50 (cells): > 138 µM (inactive)

COc1ccccc1-c1cc(C(=O)Nc2ccc(F)cc2F)no1
IC50 [1]: > 122 µM (inactive) | IC50 [2]: > 122 µM (inactive)

CC(C)N(CC(=O)Nc1ccc(Cl)cc1C(F)(F)F)C(=O)CCl
EC50 (BJ [3]): 6.85 µM (inconclusive) | EC50 (BJ [4]): 16.9 µM (active) | EC50 [5]: 3.38 µM (active) | EC50 [6]: 11.9 µM (active) | EC50 (BJ [7]): > 150 µM (inconclusive) | EC50 [8]: 6.62 µM (active) | AC50 [9]: < 0.018 µM (inconclusive) | EC50 (Protein RecA): 6.09 µM (active) | AC50 (Paired box protein Pax-8): 5.06 µM (active) | AC50 [10]: 10 µM (active)

COc1ccc(CN(C)C[C@H]2OCCCC[C@@H](C)Oc3ccc(NC(=O)Nc4ccc(F)cc4)cc3C(=O)N([C@@H](C)CO)C[C@@H]2C)cc1
AC50 (Paired box protein Pax-8): 21.7 µM (active) | AC50 [11]: 33.8 µM (active) | AC50 [10]: 51.9 µM (active) | AC50 [12]: > 70 µM (inactive)

C[C@@H]1CCCCO[C@H](CN(C)Cc2ccc(Cl)c(Cl)c2)[C@@H](C)CN([C@@H](C)CO)C(=O)c2cc(NC(=O)Nc3ccc(F)cc3)ccc2O1
AC50 (Paired box protein Pax-8): 6.33 µM (active) | AC50 [13]: 63.6 µM (active) | AC50 [11]: 51.3 µM (active) | AC50 [14]: 29.6 µM (active) | AC50 [12]: > 70 µM (inactive)

O=C(CCc1ccccc1)N[C@H]1[C@@H](OC(=O)c2cnccn2)CCC[C@@]12C(=O)N(Cc1ccccc1)c1ccccc12
IC50 [1]: > 122 µM (inactive) | IC50 [2]: > 122 µM (inactive)

CO[C@H]1CN(C)C(=O)c2cc(NC(C)=O)ccc2OC[C@@H](C)N(C(=O)CC2CC2)C[C@H]1C
AC50 (Caspase-6): 12.1 µM (active)
